Here are results for one compound from patent publication US20170074857A1, “MEDICATION ADHERENCE MONITORING DEVICE” (UNIVERSITY OF FLORIDA RESEARCH FOUNDATION, INC., priority 2014, published 2017).

Data set [1] can be described thus: Example 4b: breath acetone and 2-butanone by Type 1 mGC after soft gel with 2-butanol and isopropyl alcohol. In kind it is in vivo, human. To be noted: 2-butanol (40 mg) and isopropyl alcohol (30 mg). The method, then:
Shown in Panel A of FIG. 76 is the 1st derivative mGC response (proportional to EDIM breath concentration) in a Type 1 SMART Device for acetone and 2-butanone as a function of breath sampling times post ingestion of the capsule.
Panel B depicts the change from baseline of the 1st derivative mGC response. Time 0 is baseline (immediately before capsule is ingested containing the two AEMs). […] Note how the 2-butanone levels in breath begin to fall after 20 min, whereas those of acetone slowly continue to rise over the study period.

For data set [2] the following is noted: cited from earlier work.

For `CCC(C)=O` [Formulation 2-butanone, 2-butanone], the “half life in breath” value in data set [1] is on record as “about 45 minutes”. For the same compound, the “Tmax of breath marker” value in data set [1] (fasting subject) came to 20 min. In data set [2] (in vivo), the “blood elimination t1/2” value was 49 to 96 min. The “pulmonary uptake from air” value in data set [2] (inhalation exposure 100,000-200,000 ppb) is 70%.
